Consider three molecules from patent US20250017931A1, “METHODS OF PERSONALIZING CANCER TREATMENT” (PROCESSA PHARMACEUTICALS, INC.,, priority 2023, published 2025).

Where two headings read alike, the source gives them in different places.

For data set [1], the target named is T1, dihydropyrimidine dehydrogenase (DPD) (Homo sapiens, UniProt Q12882).
T1 sequence (Q12882 4-1025): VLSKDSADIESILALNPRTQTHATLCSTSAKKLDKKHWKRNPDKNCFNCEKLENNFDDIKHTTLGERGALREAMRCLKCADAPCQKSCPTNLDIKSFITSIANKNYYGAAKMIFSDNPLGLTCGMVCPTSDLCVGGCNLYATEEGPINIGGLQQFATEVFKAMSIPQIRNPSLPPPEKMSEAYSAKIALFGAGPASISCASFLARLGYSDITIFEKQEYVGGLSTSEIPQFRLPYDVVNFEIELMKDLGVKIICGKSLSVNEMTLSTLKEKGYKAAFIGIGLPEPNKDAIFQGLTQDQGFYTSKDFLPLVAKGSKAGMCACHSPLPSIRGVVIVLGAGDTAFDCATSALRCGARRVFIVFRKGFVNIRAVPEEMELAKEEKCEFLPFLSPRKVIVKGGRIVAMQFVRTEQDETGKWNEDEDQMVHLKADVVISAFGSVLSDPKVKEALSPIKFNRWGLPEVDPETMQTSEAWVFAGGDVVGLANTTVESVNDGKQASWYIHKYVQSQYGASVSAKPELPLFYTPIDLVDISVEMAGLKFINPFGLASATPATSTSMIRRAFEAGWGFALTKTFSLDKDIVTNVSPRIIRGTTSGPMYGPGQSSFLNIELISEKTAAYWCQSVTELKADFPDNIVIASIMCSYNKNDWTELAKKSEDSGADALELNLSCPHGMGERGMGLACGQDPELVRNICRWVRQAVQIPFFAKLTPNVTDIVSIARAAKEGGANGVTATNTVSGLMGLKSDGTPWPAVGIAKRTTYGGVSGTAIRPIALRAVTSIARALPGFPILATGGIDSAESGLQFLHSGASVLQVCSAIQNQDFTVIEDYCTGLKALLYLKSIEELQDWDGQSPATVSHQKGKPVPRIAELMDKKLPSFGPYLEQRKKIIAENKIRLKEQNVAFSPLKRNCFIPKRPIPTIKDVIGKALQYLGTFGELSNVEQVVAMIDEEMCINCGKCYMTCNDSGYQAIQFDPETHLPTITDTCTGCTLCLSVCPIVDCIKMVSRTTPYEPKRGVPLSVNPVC
To be noted: background statement; cited from earlier work.

The conditions of data set [2]: human, in vivo. On the procedure:
40 mg of PCS6422 was administered to the subjects on both of day 1 and day 5 (Cohort 2B) or on only day 1 (Cohort 2D). Subsequently, 75 mg of capecitabine was administered to the subjects twice daily (morning and night) on days 2-8 followed by 6 days of a drug-free period (days 9-14).
Blood samples for PK analysis of PCS6422 and its major metabolite, 5-acetyluracil in Cycle 1 on Day 1 was drawn at 0 (pre-dose), 1, 2, 3, 5, 7, 9 and 24 hours. The 24-hour post dose sample was collected prior to capecitabine administration on Day 2.
On the first day of capecitabine treatment (Cycle 1, Day 2), blood samples for PK analysis of capecitabine, 5-fluorouracil (5-FU), and the quantifiable main metabolites, α-fluoro-β-alanine (FBAL), 5′-deoxy-5-fluorocytidine (5′-DFCR), and doxifluridine (5′-DFUR) were obtained at the following time points relative to administration of the first dose of capecitabine […]: 0 (pre-dose), 0.5, 1, 2, 3, 5, 7, and 9 hours. In Cycle 1 on Day 8, blood samples were obtained at the following time points relative to administration of the morning dose of capecitabine at time 0 (pre-dose/trough), 0.5, 1, 2, 3, 5, 7, and 9 hours.
Additional PK blood samples for capecitabine and its main metabolites were obtained prior to administration of the morning dose of capecitabine on Days 3, 4, 5, 6, 7, 9. Validated analytical methods were used to determine the concentrations of PCS6422, 5-aceyluracil, capecitabine, 5-FU, FBAL, 5′-DFCR, and 5′-DFUR in plasma.

For data set [3] the following is noted: human, in vivo. On the procedure:
40 mg of PCS6422 is administered to the subjects on day 1. Subsequently, 75 mg of capecitabine is administered to the subjects daily (Cohort 1) or twice daily (Cohort 2A, morning and night) on days 2-8 followed by 6 days of a drug-free period (days 9-14).
Blood samples for pharmacokinetic (PK) analysis of PCS6422 and its major metabolite, 5-acetyluracil, are drawn in cycle 1 on day 1 at 0 (pre-dose), 1, 2, 3, 5, 7, 9, and 24 hours post PCS6422 administration. On the first day of capecitabine treatment (Cycle 1, day 2), blood samples for PK analysis of capecitabine, 5-fluorouracil (5-FU), and the quantifiable main metabolites, α-fluoro-β-alanine (FBAL), 5′-deoxy-5-fluorocytidine (5′-DFCR), and doxifluridine (5′-DFUR) are obtained at the following time points relative to administration of the first dose of capecitabine (dose 1): 0 (pre-dose/trough), 0.5, 1, 2, 3, 5, 7, and at 9 hours. In cycle 1 on Day 8, blood samples are obtained at the following time points relative to administration of the dose of capecitabine (dose 7 of cycle 1): 0 (pre-dose/trough), 0.5, 1, 2, 3, 5, 7, 9, 24, 30, and 48 hours post-capecitabine dose. A capecitabine blood sample is also drawn on cycle 2, day 1, prior to the dose of PCS6422.
Blood samples are also drawn for the analysis of DPD activity using uracil and dihydrouracil concentrations at screening and at the following times during Cycle 1: Day 1, Day 2, Day 8, Day 9, and Day 10. A blood sample is also drawn on Cycle 2, day 1 prior to the dose of PCS6422. All blood samples for analysis of uracil and dihydrouracil concentrations are taken prior a subject's meal, if possible. Actual sample time is recorded. Validated analytical methods are used to determine the concentrations of PCS6422, 5-acetyluracil, capecitabine, 5-FU, FBAL, 5′-DFCR, and 5′-DFUR, uracil, and/or dihydrouracil in plasma.
This is another data set of the same source.

The conditions of data set [4]: laboratory animals; cited from earlier work.
Data set [5] deals with T1, dihydropyrimidine dehydrogenase (DPD). To be noted: cited from earlier work.

Turning to `C#Cc1c[nH]c(=O)[nH]c1=O` [PCS6422, 5-ethynyl-1H-pyrimidine-2,4-dione], the “inactivation of DPD” value in data set [1] is “potent and irreversible inactivator”.
For `NCC(F)C(=O)O` (stereo not drawn) [FBAL, α-fluoro-β-alanine], the figures for the “FBAL Cp high on Day 2 (0-9 hours post capecitabine dose)” value in data set [2] and in data set [3] were 15 to 33.1 ng/mL and 15 to 26 ng/mL, respectively. Also, the “FBAL Cp low on Day 2 (0-9 hours post capecitabine dose)” value in data set [3] is 15 to 22.6 ng/mL. Further, the “effect on anti-tumor activity of 5-FU” value in data set [4] is recorded as “decrease the anti-tumor activity of 5-FU”.
In the case of `O=c1[nH]cc(F)c(=O)[nH]1` [5-FU, 5-fluorouracil], in data set [2], the “highest 5-FU plasma concentration (Cp high) during 0-9 hours following capecitabine dosing” value fell in the range of 197 to 746 ng/mL and the “lowest 5-FU plasma concentration (Cp low) during 0-9 hours following capecitabine dosing” value lay within 6.4 to 283 ng/mL. In addition, the “5FU D 9” value in data set [2] (168 h) was below 2 ng/mL. Moreover, in data set [3], the “5FU D 8 0-9 hrs Cp Low” value is below 2 ng/mL, the “5FU D 8 Cmin” value was below 2 ng/mL, the “5FU D 9” value is below 2 ng/mL and the “highest 5-FU plasma concentration (Cp high) during 0-9 hours following capecitabine dosing” value lay within 309 to 466 ng/mL. For the same molecule, the “lowest 5-FU plasma concentration (Cp low) during 0-9 hours following capecitabine dosing” value in data set [3] lay in the range of 8.1 to 164 ng/mL. Also, the “fraction of administered 5-FU catabolized by DPD” value in data set [5] (background statement) is given as “over 80%”. For the same molecule, the 5-FU elimination half-life entry in data set [5] (with DPD inhibited by PCS6422) was “several hours”. Further, the 5-FU elimination half-life in data set [5] (without PCS6422) is 10 to 20 min.
